Common to all, as to experiment: growth of human tumour cells (NCI), 48 h
The subject of test [1] is T47D.
Test [2] has as its system NCI/ADR-RES.
In test [3] the test system is EKVX.
Test [4] deals with SNB-75.
The test system of test [5] is M14.
The test system of test [6] is NCI-H460.
In test [7] the test system is OVCAR-3.
The test system of test [8] is CAKI-1.
In test [9] the test system is CCRF-CEM.
Test [10] deals with A549.
The test system of test [11] is RPMI-8226.
The subject of test [12] is UO-31.
Test [13] deals with OVCAR-4.
Test [14] concerns HOP-62.
Test [15] concerns HCT-15.
The test system of test [16] is K562.
Test [17] relates to Malme-3M.
The test system of test [18] is SR.
Test [19] relates to NCI-H522.
Test [20] relates to DU-145.

Structures are written as SMILES.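 Following 48 hours of exposure in 96-well plates, responses at five concentrations were used to interpolate endpoints linearly. GI50 = concentration required for 50% inhibition of growth.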 Calls of active or inactive are those of the source. No stated cut-off is given here; in the data, active = GI50 up to about 1.1 µM and inactive = higher.

With `C=C1CC(COc2ccc3c(C)cc(=O)oc3c2)(c2ccccc2)OC1=O` (stereo not given), the GI50 in test [1] is 2240 nM (inactive); in test [2], 2280 nM (inactive); in test [3], 9290 nM (inactive); in test [4] it was 6950 nM (inactive); in test [5], 1330 nM (inactive); in test [6], 7430 nM (inactive). Also, the GI50 in test [7] was 2690 nM (inactive); in [8], 1640 nM (inactive); in test [9] it was 281 nM (active); in test [10], 11500 nM (inactive); in test [11], 292 nM (active); in test [12], 4880 nM (inactive). The GI50 was 2160 nM (inactive) in [13]; 13100 nM (inactive) in test [14]; 1740 nM in test [15]; 356 nM (active) in [16]; 1300 nM (inactive) in [17]; 1700 nM (inactive) in [18]. For the same compound, the GI50 in [19] was 1740 nM (inactive); in [20], 2480 nM (inactive).

The record behind these values is ChEMBL document CHEMBL1201862, “PubChem BioAssay data set” (2004).
